The text below walks through data of patent publication US20230322776A1, “NEW ARYL-PYRIDO-PYRIMIDIN-ONE DERIVATIVES” (Hoffmann-La Roche Inc., priority 2020, published 2023).

Assay [1] deals with HCT116 cells (WT BRAF), ERK phospho-T202/Y204. Kind of assay: HTRF assay for P-ERK determination in HCT116 cells (BRAF activation, paradox). The class given is cell-based. The settings on record: for EC50: Homo sapiens, HCT-116, HCT116 cells, 1 hour drug incubation, activation relative to maximum Dabrafenib-mediated activation (100%), top concentration 10 μM, read-out: P-ERK_HCT-116: EC50—50PCT; for Fold Selectivity HCT-116 EC50-50/ A375: ratio of P-ERK HCT-116 EC50-50PCT to P-ERK A375 IC50. A digest of the protocol:
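HCT116 (WT BRAF) cells, 8000/well in DMEM + 10% FBS, treated 1 h with compound at 0.001–10 μM in duplicate; lysed, then HTRF antibodies for ERK phospho-T202/Y204, read after overnight dark incubation at room temperature. Blank-subtracted ratio normalized to DMSO (0%) and peak dabrafenib signal (100%); sigmoidal or bell-shaped fit gives % activation.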

Assay [2] addresses BRAF V660E (Homo sapiens, UniProt P15056, V600E). Kind of assay: KD BRAF V660E (Table 1; no method described). The class given is binding.
The subject of assay [3] is A375 cells (V600E mutated BRAF), ERK phospho-T202/Y204. Kind of assay: HTRF assay for P-ERK determination in A375 cells (BRAF inhibition). The class given is cell-based. The note with it: Homo sapiens, A-375, 1 hour drug incubation, DMSO = 100%, 10 μM Dabrafenib = 0%, top concentration 10 μM, read-out: P-ERK_A375: IC50. A digest of the protocol: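 A375 cells (V600E BRAF), 8000/well, treated 1 h with compounds at 0.001–10 μM final in duplicate; lysed and phospho-ERK (Thr202/Tyr204) read by HTRF at 665/620 nm after overnight RT incubation. Blank-subtracted ratios normalized to DMSO (100%) and 10 μM dabrafenib (0%); IC50 from sigmoidal fit.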

Assay [4] has as its target BRAF (Homo sapiens, UniProt P15056). Description: KD BRAF (Table 1; no method described). In kind it is binding.

The structures appear in SMILES notation. Bounds are passed on as bounds.

Chain of BRAF (P15056 whole entry): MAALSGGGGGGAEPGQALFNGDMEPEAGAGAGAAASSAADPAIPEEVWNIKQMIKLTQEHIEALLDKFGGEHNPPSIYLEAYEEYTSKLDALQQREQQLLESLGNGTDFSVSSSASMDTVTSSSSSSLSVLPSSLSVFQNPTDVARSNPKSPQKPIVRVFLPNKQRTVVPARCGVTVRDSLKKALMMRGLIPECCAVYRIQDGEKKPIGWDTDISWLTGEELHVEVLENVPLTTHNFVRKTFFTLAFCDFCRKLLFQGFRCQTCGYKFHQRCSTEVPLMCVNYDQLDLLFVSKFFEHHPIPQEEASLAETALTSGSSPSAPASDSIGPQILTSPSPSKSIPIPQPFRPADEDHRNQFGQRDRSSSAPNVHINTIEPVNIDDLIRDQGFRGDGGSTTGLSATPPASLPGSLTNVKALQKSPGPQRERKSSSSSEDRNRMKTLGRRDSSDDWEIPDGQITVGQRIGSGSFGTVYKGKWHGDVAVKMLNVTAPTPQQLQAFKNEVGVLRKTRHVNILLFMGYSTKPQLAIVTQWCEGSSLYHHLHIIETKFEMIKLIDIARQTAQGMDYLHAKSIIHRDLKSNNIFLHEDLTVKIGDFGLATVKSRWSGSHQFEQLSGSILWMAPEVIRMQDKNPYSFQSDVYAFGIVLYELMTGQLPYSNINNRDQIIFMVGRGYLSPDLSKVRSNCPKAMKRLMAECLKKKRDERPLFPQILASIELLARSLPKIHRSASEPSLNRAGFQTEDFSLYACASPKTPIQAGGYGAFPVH
Chain of BRAF V660E (P15056 2-766 V600E): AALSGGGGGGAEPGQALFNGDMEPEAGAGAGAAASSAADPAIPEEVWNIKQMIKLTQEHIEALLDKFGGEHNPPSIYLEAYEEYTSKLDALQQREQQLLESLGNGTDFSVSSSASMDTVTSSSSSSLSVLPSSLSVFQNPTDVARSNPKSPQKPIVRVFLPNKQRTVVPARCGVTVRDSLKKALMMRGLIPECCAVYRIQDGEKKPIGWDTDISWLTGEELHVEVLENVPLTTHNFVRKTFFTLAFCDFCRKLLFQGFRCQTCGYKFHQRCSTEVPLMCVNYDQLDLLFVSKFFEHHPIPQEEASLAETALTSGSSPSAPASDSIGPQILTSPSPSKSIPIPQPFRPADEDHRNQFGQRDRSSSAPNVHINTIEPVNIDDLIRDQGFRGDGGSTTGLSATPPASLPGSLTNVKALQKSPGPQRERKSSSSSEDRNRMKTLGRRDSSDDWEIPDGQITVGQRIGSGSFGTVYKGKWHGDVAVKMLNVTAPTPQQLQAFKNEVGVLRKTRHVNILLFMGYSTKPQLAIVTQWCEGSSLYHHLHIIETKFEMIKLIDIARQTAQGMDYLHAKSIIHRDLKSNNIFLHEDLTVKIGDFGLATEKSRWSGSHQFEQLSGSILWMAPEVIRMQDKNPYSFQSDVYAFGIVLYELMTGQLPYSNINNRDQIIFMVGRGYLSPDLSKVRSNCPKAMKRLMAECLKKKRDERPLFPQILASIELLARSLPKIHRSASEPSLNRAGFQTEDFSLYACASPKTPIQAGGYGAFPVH

For `CC(=O)NCCOCCOCCNc1ncc2cc(-c3c(F)ccc(NS(=O)(=O)N4CC[C@@H](F)C4)c3F)c(=O)n(C)c2n1` [Example 32, N-[2-[2-[2-[[6-[2,6-difluoro-3-[[(3R)-3-fluoropyrrolidin-1-yl]sulfonylamino]phenyl]-8-methyl-7-oxopyrido[2,3-d]pyrimidin-2-yl]amino]ethoxy]ethoxy]ethyl]acetamide], in assay [1], the 50% effective concentration (EC50) was at least 10000 nM and the “Fold Selectivity HCT-116 EC50-50/ A375” value is recorded as above 51.1. Besides, in assay [2], the Kd is 70 nM. The IC50 in assay [3] was determined as 196 nM. Moreover, the Kd in assay [4] is 23.6 nM.

Take `CC(=O)N1CCC(NC(=O)CCCNc2ncc3cc(-c4c(F)ccc(NS(=O)(=O)N5CC[C@@H](F)C5)c4F)c(=O)n(C)c3n2)CC1` [Example 33, N-(1-acetylpiperidin-4-yl)-4-[[6-[2,6-difluoro-3-[[(3R)-3-fluoropyrrolidin-1-yl]sulfonylamino]phenyl]-8-methyl-7-oxopyrido[2,3-d]pyrimidin-2-yl]amino]butanamide]: the EC50 in assay [1] was at least 10000 nM. Moreover, the “Fold Selectivity HCT-116 EC50-50/ A375” value in assay [1] is above 3.2. In addition, the Kd in assay [2] stood at 60.1 nM; in assay [4], 24.9 nM. The IC50 in assay [3] came out at 3170 nM.

For `CC(=O)NCc1cccc(CCNc2ncc3cc(-c4c(F)ccc(NS(=O)(=O)N5CC[C@@H](F)C5)c4F)c(=O)n(C)c3n2)c1` [Example 34, N-[[3-[2-[[6-[2,6-difluoro-3-[[(3R)-3-fluoropyrrolidin-1-yl]sulfonylamino]phenyl]-8-methyl-7-oxopyrido[2,3-d]pyrimidin-2-yl]amino]ethyl]phenyl]methyl]acetamide], the 50% effective concentration (EC50) in assay [1] came out at 681 nM. Further, in assay [1], the “Fold Selectivity HCT-116 EC50-50/ A375” value came out at 59.1. Further, the Kd amounted to 4 nM in assay [2] and 1.8 nM in assay [4]. The IC50 in assay [3] amounted to 11.5 nM.

Take `CC(=O)NCc1ccc(CCNc2ncc3cc(-c4c(F)ccc(NS(=O)(=O)N5CC[C@@H](F)C5)c4F)c(=O)n(C)c3n2)cc1` [Example 35, N-[[4-[2-[[6-[2,6-difluoro-3-[[(3R)-3-fluoropyrrolidin-1-yl]sulfonylamino]phenyl]-8-methyl-7-oxopyrido[2,3-d]pyrimidin-2-yl]amino]ethyl]phenyl]methyl]acetamide]: the EC50 in assay [1] came to 1490 nM. For the same compound, the “Fold Selectivity HCT-116 EC50-50/ A375” value in assay [1] is listed as 40.0. Besides, the figures for the Kd in assay [2] and in assay [4] were 22.1 nM and 5.7 nM, respectively. Also, in assay [3], the concentration for half-maximal inhibition (IC50) was 37.3 nM.

For `CC(=O)N(C)Cc1cccc(CCNc2ncc3cc(-c4c(F)ccc(NS(=O)(=O)N5CC[C@@H](F)C5)c4F)c(=O)n(C)c3n2)c1` [Example 36, N-[[3-[2-[[6-[2,6-difluoro-3-[[(3R)-3-fluoropyrrolidin-1-yl]sulfonylamino]phenyl]-8-methyl-7-oxopyrido[2,3-d]pyrimidin-2-yl]amino]ethyl]phenyl]methyl]-N-methylacetamide], in assay [1], the EC50 amounted to 2730 nM. In assay [1], the “Fold Selectivity HCT-116 EC50-50/ A375” value amounted to 133.4. Moreover, the Kd in assay [2] turned out to be 17.2 nM; in assay [4], 8.9 nM. Further, the IC50 in assay [3] is 20.5 nM.

In the case of `CCN(C)S(=O)(=O)Nc1cccc(-c2cc3cnc(NCCC4CCN(C(C)=O)CC4)nc3n(C)c2=O)c1C#N` [Example 37, 2-[2-(1-acetylpiperidin-4-yl)ethylamino]-6-[2-cyano-3-[[ethyl(methyl)sulfamoyl]amino]phenyl]-8-methyl-7-oxopyrido[2,3-d]pyrimidine], in assay [1], the EC50 worked out at 463 nM. Moreover, the “Fold Selectivity HCT-116 EC50-50/ A375” value in assay [1] came to 9.4. For the same compound, the Kd worked out at 4 nM in assay [2] and 2.2 nM in assay [4]. In addition, in assay [3], the half-maximal inhibitory concentration (IC50) came to 49.5 nM.

Turning to `Cl.NCCOCCOCCn1c(=O)c(-c2c(F)ccc(NS(=O)(=O)N3CC[C@@H](F)C3)c2F)cc2cnc(NCC3CC3)nc21` [Example 39, (3R)—N-[3-[8-[2-[2-(2-aminoethoxy)ethoxy]ethyl]-2-(cyclopropylmethylamino)-7-oxopyrido[2,3-d]pyrimidin-6-yl]-2,4-difluorophenyl]-3-fluoropyrrolidine-1-sulfonamide; hydrochloride], the half-maximal effective concentration (EC50) in assay [1] is at least 10000 nM. The “Fold Selectivity HCT-116 EC50-50/ A375” value in assay [1] was determined as 1.0. The Kd was 41.3 nM in assay [2] and 13.4 nM in assay [4]. Besides, in assay [3], the IC50 was at least 10000 nM.

With `CC(=O)NCCOCCOCCn1c(=O)c(-c2c(F)ccc(NS(=O)(=O)N3CC[C@@H](F)C3)c2F)cc2cnc(NCC3CC3)nc21` [Example 41, N-[2-[2-[2-[2-(cyclopropylmethylamino)-6-[2,6-difluoro-3-[[(3R)-3-fluoropyrrolidin-1-yl]sulfonylamino]phenyl]-7-oxopyrido[2,3-d]pyrimidin-8-yl]ethoxy]ethoxy]ethyl]acetamide], in assay [1], the EC50 is at least 10000 nM and the “Fold Selectivity HCT-116 EC50-50/ A375” value is listed as above 11.8. In assay [2], this compound had a Kd of 56.1 nM. For the same compound, in assay [3], the IC50 was 844 nM. For the same compound, the affinity in assay [4], expressed as Kd, was 21.2 nM.

`CC(=O)N[C@H]1C[C@H](n2c(=O)c(-c3c(F)ccc(NS(=O)(=O)N4CC[C@@H](F)C4)c3F)cc3cnc(NCC4CC4)nc32)C1` [Example 43, trans-N-[3-[2-(cyclopropylmethylamino)-6-[2,6-difluoro-3-[[(3R)-3-fluoropyrrolidin-1-yl]sulfonylamino]phenyl]-7-oxopyrido[2,3-d]pyrimidin-8-yl]cyclobutyl]acetamide]: in assay [1], the EC50 worked out at 404 nM and the “Fold Selectivity HCT-116 EC50-50/ A375” value came out at 3.7. Besides, the dissociation constant Kd in assay [2] was 12.9 nM. Moreover, the IC50 in assay [3] amounted to 108 nM. Moreover, in assay [4], the affinity, expressed as Kd, was 5.5 nM.

As to `CCN(C)S(=O)(=O)Nc1ccc(F)c(-c2cc3cnc(NCC4CC4)nc3n(CCOCc3ccccc3)c2=O)c1F` [Example 44, 2-(Cyclopropylmethylamino)-6-[3-[[ethyl(methyl)sulfamoyl]amino]-2,6-difluorophenyl]-7-oxo-8-(2-phenylmethoxyethyl)pyrido[2,3-d]pyrimidine], in assay [1], the EC50 was at least 10000 nM. The “Fold Selectivity HCT-116 EC50-50/ A375” value in assay [1] is above 5.3. Besides, the figures for the Kd in assay [2] and in assay [4] were 1750 nM and 1380 nM, respectively. Also, in assay [3], the IC50 was determined as 1900 nM.

In the case of `Cn1c(=O)c(-c2c(F)ccc(NS(=O)(=O)N3CC[C@@H](F)C3)c2F)cc2cnc(NCCc3ccc(CC(=O)OC(C)(C)C)cc3)nc21` [Example 46, tert-butyl 2-[4-[2-[[6-[2,6-difluoro-3-[[(3R)-3-fluoropyrrolidin-1-yl]sulfonylamino]phenyl]-8-methyl-7-oxopyrido[2,3-d]pyrimidin-2-yl]amino]ethyl]phenyl]acetate], in assay [1], the concentration for a half-maximal effect (EC50) is 3530 nM and the “Fold Selectivity HCT-116 EC50-50/ A375” value turned out to be 55.0. In addition, binding in assay [2] was put at a Kd of 224 nM. The IC50 in assay [3] was determined as 64.2 nM. Further, the Kd in assay [4] came out at 96.7 nM.

On to `COC(=O)Cc1cccc(CCNc2ncc3cc(-c4c(F)ccc(NS(=O)(=O)N5CC[C@@H](F)C5)c4F)c(=O)n(C)c3n2)c1` [Example 47, methyl 2-[3-[2-[[6-[2,6-difluoro-3-[[(3R)-3-fluoropyrrolidin-1-yl]sulfonylamino]phenyl]-8-methyl-7-oxopyrido[2,3-d]pyrimidin-2-yl]amino]ethyl]phenyl]acetate], for which, in assay [1], the EC50 is 4470 nM and the “Fold Selectivity HCT-116 EC50-50/ A375” value is given as 116.0. Moreover, the Kd in assay [2] turned out to be 23.2 nM. Further, the IC50 in assay [3] is 38.5 nM. In assay [4], the Kd was 9.2 nM.
